{"source": "patent US20040214799A1", "about": "“Cancerous metastasis inhibitors containing carbacyclic phosphatidic acid derivatives” (priority 2001, published 2004)", "key": {"[1]": {"system": "MM1 cells", "experiment": "Effect on the proliferation of MM1 cells", "assay_type": "cell-based, rat", "details": "12.5 μM or 25 μM cPA, 10% FBS, 24 hours and 72 hours", "method": "12.5 μM and 25 μM cPA were added to media containing 10% FBS, and then the cells were cultured under conditions of 37° C. and 5% CO2 for 24 hours and 72 hours. The number of the MM1 cells was counted using a hemocytometer."}, "[2]": {"system": "MM1 cells", "details": "reported by Mukai et al., Int. J. Cancer 81, 918-922 (1999); cited from earlier work"}, "[3]": {"system": "MM1 cells", "details": "Int. J. Cancer 81, 918-922 (1999), cited from earlier work"}, "[4]": {"system": "MM1 cells", "details": "reported by Mukai et al., Int. J. Cancer 81, 918-922 (1999); cited from earlier work", "remark": "listed apart in the source"}, "[5]": {"system": "Mouse malignant melanoma B16-F0", "experiment": "B16 melanoma hematogenous lung metastasis model; on Metastatic nodules, Abdominal cavity Adipose tissue: key: −: Absent; +: Present; on Metastatic nodules, Abdominal cavity Adrenal gland: key: −: Absent; +: Present; on Metastatic nodules, Abdominal cavity Diaphragm: key: −: Absent; +: Present; on Metastatic nodules, Abdominal cavity Kidney: key: −: Absent; +: Present; on Metastatic nodules, Abdominal cavity Ovary: key: −: Absent; +: Present; on Metastatic nodules, Abdominal cavity Spleen: key: −: Absent; +: Present; on Metastatic nodules, Thoracic cavity: key: −: Absent; +: Present; on Metastatic nodules, Tissue around glandual clitoris: key: −: Absent; +: Present", "assay_type": "in vivo", "details": "0.008 mg/body i.v.", "method": "cPA-19 and cPA-20 were used as test substances. 0.1 w/v % BSA/PBS which was prepared by dissolving Albumin, Bovine [essentially Fatty Acid Free] (BSA, Lot No. 89H7604, Sigma chemical company) in Ca^2+ and Mg^2+ free PBS (pH 7.2), was used as a medium After preparation, the solution was sterilized by filtration using a filter (0.22 μm, Millipore). Preparation was performed when used. cPA-5 was used as a positive control substance.\nA medium was added in a volume required for a test substance or a positive control substance. Dissolution was performed by ultrasonication, thereby preparing a 0.16 mg/mL solution. The 0.16 mg/mL solution containing a test substance was diluted with a medium, thereby preparing 0.08 and 0.02 mg/mL solutions. All mixtures were prepared when used.\nMice were purchased from CHARLES RIVER JAPAN. INC. The line employed herein was C57BL/6NCrj (sexuality: female). The number of animals kept in stock was 60, and the age of these animals when kept in stock was 4 weeks. […] The environmental conditions for the test system were as follows:\nMouse malignant melanoma B16-F0 was used as a tumor cell. The cell was purchased from Dainippon Pharmaceutical Co., Ltd.\nDulbecco's Modified Eagle's Media containing 10% feral bovine serum and kanamycin were used for culture. […] A medium was added to stop the action of trypsin while pipetting, thereby preparing a cell suspension. The suspension was diluted by one-tenth with a medium for culturing, followed by subculturing until it reached a volume sufficient for grafting.\nA cell suspension was prepared by the same technique as the subculture method. Specifically, the cells were washed with a Ca^2+ and Mg^2+ free phosphate buffer [PBS(−)], and then harvested. The harvested cells were suspended in a 10 mL of PBS(−), thereby preparing a cell suspension. The number of cells in the cell suspension was measured to obtain the total cell number. 50 μL of the cell suspension, 100 μL of 0.4% trypan blue liquid and 100 μL of PBS(−) were mixed, and then viable count was measured. The survival rate of the cells was calculated from the viable count and total cell number.\nBased on the body weight on the day of the administration of the test substance, mice were grouped into 8 test groups according to the stratified continuous randomization method as shown in Table 2 below.\nThe mixture was administered via the caudal vein. The number of grafted cells was 5×10^5 cells/body. The dose of the test substance was 0.001, 0.004 or 0.008 mg/body, and the dose of the positive control substance was 0.008 mg/body.\nOn day 14 after the administration of the test substance, blood was collected from the posterior portion of the abdominal vena cava under isoflurane anesthesia. After the mice were sacrificed by blood-letting, the presence or absence of intrapleural and intraperitoneal metastatic nodules was confirmed. Lungs were extracted, and then fixed with a 10% neutral buffered formalin solution. The number of nodules resulting from lung metastasis was measured under a stereoscopic microscope (magnification: 10 times).\nAfter the measurement of the number of nodules resulting from lung metastasis, samples were paraffin-embedded, and then thin sections were prepared. Hematoxylin eosinic-stained samples were prepared from these sections. The number of metastatic lesions in the certain portions of the left lobe and the posterior lobe was measured, and then the lesions were sorted by size. On the basis of the diameter (0.65 mm) of an object lens (×40), metastatic lesions with major diameters of less than 0.65 mm were classified as having a small size, and those with major diameters of between 0.65 mm or more and less than 1.30 mm were classified as having a large size. Furthermore, the degree of invasion of lymphocytes into metastatic lesions was confirmed qualitatively.\nThe representative value of each test group was denoted as mean±standard deviation (mean±S.D.). Differences in mean values were examined as follows."}, "[6]": {"system": "HT-1080 cells", "details": "Mukai et al., Int. J. Cancer 81, 918-922 (1999); cited from earlier work"}, "[7]": {"system": "MM1 cells", "experiment": "Measurement of intracellular cAMP in MM1 cells", "assay_type": "cell-based, rat", "details": "25 μM cPA or 10 μM Forskolin, pretreated with 1 mM IBMX", "method": "After a certain time period, 10% ice-cooled TCA was added to stop the reaction. The centrifuged supernatant was washed 4 times with water-saturated diethylether to remove TCA, and then placed under nitrogen gas flow at 60° C. to remove the solvent completely. cAMP in the resultant sample was measured using a cyclic AMP [^3H] assay system (Amersham)."}, "[8]": {"details": "autopsy day 14, individual animals"}}, "note": "Values joined by “and” are separate entries in the source; they are usually repeats but may differ in a detail not shown here. Equal entries are not always repeated."}
{"compound": "CCCCCCCCCCCCCCCC(=O)OC[C@@H]1COP(=O)(O)O1", "note": "[cPA-5, Pal-cPA, reference compound]", "values": [{"measurement": "effect on MM1 cell proliferation (in words)", "setting": "[1]", "result": "no effect on MM1 cell proliferation"}, {"measurement": "suppression of FBS-induced invasion (in words)", "setting": "[2]", "result": "strongly suppress"}, {"measurement": "invasion suppressing action on LPA-induced invasion (in words)", "setting": "[3]; reported by Mukai et al.", "result": "strongly suppress"}, {"measurement": "suppressed LPA-induced invasion by", "setting": "[3]; studied by Mukai et al.", "result": "approximately 85%"}, {"measurement": "intracellular cAMP concentration of MM1 cells (in words)", "setting": "[4]", "result": "leads an increase of intracellular cAMP concentration"}, {"measurement": "action of decreasing the number of metastatic lesions (in words)", "setting": "[5]", "result": "no action of decreasing the number of metastatic lesions was observed"}, {"measurement": "metastasis / number of metastatic nodules in the lungs versus medium group (in words)", "setting": "[5]", "result": "a significant decrease was observed in the number of metastatic nodules"}, {"measurement": "invasion of lymphocytes into metastatic lesions observed in cases", "setting": "[5]; animals with metastatic lesions", "result": "2 out of 5"}, {"measurement": "Metastatic nodules, Abdominal cavity Adipose tissue", "setting": "[5]; [8]", "result": "−"}, {"measurement": "Metastatic nodules, Abdominal cavity Adrenal gland", "setting": "[5]; [8]", "result": "−"}, {"measurement": "Metastatic nodules, Abdominal cavity Diaphragm", "setting": "[5]; [8]", "result": "−"}, {"measurement": "Metastatic nodules, Abdominal cavity Kidney", "setting": "[5]; [8]", "result": "−"}, {"measurement": "Metastatic nodules, Abdominal cavity Ovary", "setting": "[5]; [8]", "result": "−"}, {"measurement": "Metastatic nodules, Abdominal cavity Spleen", "setting": "[5]; [8]", "result": "+ (3×) and − (3×)"}, {"measurement": "Metastatic nodules, Thoracic cavity", "setting": "[5]; [8]", "result": "−"}, {"measurement": "Metastatic nodules, Tissue around glandual clitoris", "setting": "[5]; [8]", "result": "−"}, {"measurement": "cases with metastatic nodules in the spleen", "setting": "[5]; autopsy, 6 mice", "result": 3, "unit": "case"}, {"measurement": "metastatic nodules in the thoracic cavity", "setting": "[5]; autopsy, 6 mice", "result": "no metastatic nodules were observed"}, {"measurement": "Number of lung tumor nodules, Range (mininum-maximum)", "setting": "[5]; day 14, N 6", "result": "5-38"}, {"measurement": "Number of mice having lung tumor nodules", "setting": "[5]; day 14, N 6", "result": 6}, {"measurement": "Number of lung tumor nodules", "setting": "[5]; day 14, mean ± S.D., N 6", "result": "21 ± 13$"}, {"measurement": "Number of mice having metastatic lesions", "setting": "[5]; lung histopathology, N 6", "result": 5}, {"measurement": "Findings: Invasion of lymphocytes into melanoma metastatic lesion", "setting": "[5]; lung histopathology, individual animals", "result": "− (3×) and ++ and +"}, {"measurement": "Number of metastatic lesions per section, Large size", "setting": "[5]; major diameter 0.65 mm ≦ and <1.3 mm, mean ± S.D.", "result": "0.8 ± 0.8"}, {"measurement": "Number of metastatic lesions per section, Small size", "setting": "[5]; major diameter <0.65 mm, left lobe and posterior lobe, mean ± S.D.", "result": "1.2 ± 0.8"}, {"measurement": "Number of metastatic lesions per section, Total", "setting": "[5]; mean ± S.D.", "result": "2.0 ± 1.3"}, {"measurement": "suppression of serum/LPA-independent invasion of HT-1080 cells (in words)", "setting": "[6]", "result": "suppressed"}, {"measurement": "change of intracellular cAMP concentration (in words)", "setting": "[7]", "result": "could not be confirmed"}]}
